Results reported in US10428063B2 (Bayer Pharma Aktiengesellschaft, priority 2015, dated 2019).

The compounds below were run against catalytic domain of human Bub1 (amino acids 704-1085) (Homo sapiens (Human), UniProt O43683) (assay: Bub1 kinase assay (TR-FRET)). Details: 10 μM ATP, 1 μM peptide substrate, recombinant catalytic domain of human Bub1, read-out: Bub1 kinase assay median IC50.
Format: biochemical
Excerpt: Bub1-inhibitory activities of compounds described in the present invention were quantified using a time-resolved fluorescence energy transfer (TR-FRET) kinase assay which measures phosphorylation of the synthetic peptide Biotin-Ahx-VLLPKKSFAEPG (C-terminus in amide form), purchased from e.g. Biosyntan (Berlin, Germany) by the (recombinant) catalytic domain of human Bub1 (amino acids 704-1085), expressed in Hi5 insect cells with an N-terminal His6-tag and purified by affinity- (Ni-NTA) and size exclusion chromatography.
In a typical assay 11 different concentrations of each compound (0.1 nM, 0.33 nM, 1.1 nM, 3.8 nM, 13 nM, 44 nM, 0.15 μM, 0.51 μM, 1.7 μM, 5.9 μM and 20 μM) were tested in duplicate within the same microtiter plate. To this end, 100-fold concentrated compound solutions (in DMSO) were previously prepared by serial dilution (1:3.4) of 2 mM stocks in a clear low volume 384-well source microtiter plate (Greiner Bio-One, Frickenhausen, Germany), from which 50 nl of compounds were transferred into a black low volume test microtiter plate from the same supplier. Subsequently, 2 μl of Bub1 (the final concentration of Bub1 was adjusted depending on the activity of the enzyme lot in order to be within the linear dynamic range of the assay: typically ˜200 ng/ml were used) in aqueous assay buffer [50 mM Tris/HCl pH 7.5, 10 mM magnesium chloride (MgCl2), 200 mM potassium chloride (KCl), 1.0 mM dithiothreitol (DTT), 0.1 mM sodium ortho-vanadate, 1% (v/v) glycerol, 0.01% (w/v) bovine serum albumine (BSA), 0.005% (v/v) Trition X-100 (Sigma), 1× Complete EDTA-free protease inhibitor mixture (Roche)] were added to the compounds in the test plate and the mixture was incubated for 15 min at 22° C. to allow pre-equilibration of the putative enzyme-inhibitor complexes before the start of the kinase reaction, which was initiated by the addition of 3 μl 1.67-fold concentrated solution (in assay buffer) of adenosine-tri-phosphate (ATP, 10 μM final concentration) and peptide substrate (1 μM final concentration). The resulting mixture (5 μl final volume) was incubated at 22° C. during 60 min., and the reaction was stopped by the addition of 5 μl of an aqueous EDTA-solution (50 mM EDTA, in 100 mM HEPES pH 7.5 and 0.2% (w/v) bovine serum albumin) which also contained the TR-FRET detection reagents (0.2 μM streptavidin-XL665 [Cisbio Bioassays, Codolet, France] and 1 nM anti-phosho-Serine antibody [Merck Millipore, cat. #35-002] and 0.4 nM LANCE EU-W1024 labeled anti-mouse IgG antibody [Perkin-Elmer, product no. AD0077, alternatively a Terbium-cryptate-labeled anti-mouse IgG antibody from Cisbio Bioassays can be used]). The stopped reaction mixture was further incubated 1 h at 22° C. in order to allow the formation of complexes between peptides and detection reagents. Subsequently, the amount of product was evaluated by measurement of the resonance energy transfer from the Eu-chelate-antibody complex recognizing the Phosphoserine residue to the streptavidin-XL665 bound to the biotin moiety of the peptide. To this end, the fluorescence emissions at 620 nm and 665 nm after excitation at 330-350 nm were measured in a TR-FRET plate reader, e.g. a Rubystar or Pherastar (both from BMG Labtechnologies, Offenburg, Germany) or a Viewlux (Perkin-Elmer) and the ratio of the emissions (665 nm/622 nm) was taken as indicator for the amount of phosphorylated substrate. The data were normalised using two sets of control wells for high- (=enzyme reaction without inhibitor=0%=Minimum inhibition) and low- (=all assay components without enzyme=100%=Maximum inhibition) Bub1 activity. IC50 values were calculated by fitting the normalized inhibition data to a 4-parameter logistic equation (Minimum, Maximum, IC50, Hill; Y=Max+(Min−Max)/(1+(X/IC50)Hill)).

catalytic domain of human Bub1 (amino acids 704-1085), sequence (O43683 704-1085): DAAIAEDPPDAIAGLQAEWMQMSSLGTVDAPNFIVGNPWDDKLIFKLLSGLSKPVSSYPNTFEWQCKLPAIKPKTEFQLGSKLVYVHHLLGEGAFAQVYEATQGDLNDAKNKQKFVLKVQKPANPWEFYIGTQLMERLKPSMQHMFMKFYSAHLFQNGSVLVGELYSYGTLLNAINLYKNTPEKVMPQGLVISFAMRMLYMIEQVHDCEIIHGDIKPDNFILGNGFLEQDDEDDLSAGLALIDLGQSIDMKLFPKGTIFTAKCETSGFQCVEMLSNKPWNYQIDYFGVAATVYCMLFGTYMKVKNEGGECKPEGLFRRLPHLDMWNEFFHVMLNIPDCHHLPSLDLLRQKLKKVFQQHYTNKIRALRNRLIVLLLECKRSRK

| SMILES | IC50 [nM] |
| --- | --- |
| O=C1NCCc2[nH]c(-c3ccncc3OCC3CC3)c(Nc3ccc(F)cc3)c21 [Example 38, 2-[3-(cyclopropylmethoxy)pyridin-4-yl]-3-[(4-fluorophenyl)amino]-1,5,6,7-tetrahydro-4H-pyrrolo[3,2-c]pyridin-4-one] | 56.1 |
| CCn1c2c(c(Nc3ccccc3)c1-c1ccnc(NC(C)=O)c1)C(=O)NCC2 [Example 15, N-{4-[1-ethyl-4-oxo-3-(phenylamino)-4,5,6,7-tetrahydro-1H-pyrrolo[3,2-c]pyridin-2-yl]pyridin-2-yl}acetamide] | 79 |
| CCCOc1cnccc1-c1[nH]c2c(c1Nc1ccccc1)C(=O)N(C)CC2 [Example 28, 5-methyl-3-(phenylamino)-2-(3-propoxypyridin-4-yl)-1,5,6,7-tetrahydro-4H-pyrrolo[3,2-c]pyridin-4-one] | 51.6 |
| CC(C)C(=O)Nc1cc(-c2[nH]c3c(c2Nc2ccccc2)C(=O)N(C(=O)C(C)C)CC3)ccn1 [Example 10, 2-methyl-N-{4-[5-(2-methylpropanoyl)-4-oxo-3-(phenylamino)-4,5,6,7-tetrahydro-1H-pyrrolo[3,2-c]pyridin-2-yl]pyridin-2-yl}propanamide] | 319 |
| CN1CCc2[nH]c(-c3ccncc3OCCC(C)(C)C)c(Nc3ccccc3)c2C1=O [Example 35, 2-[3-(3,3-dimethylbutoxy)pyridin-4-yl]-5-methyl-3-(phenylamino)-1,5,6,7-tetrahydro-4H-pyrrolo[3,2-c]pyridin-4-one] | 85.9 |
| CN1CCc2[nH]c(-c3ccncc3OCCC(F)(F)F)c(Nc3ccccc3)c2C1=O [Example 33, 5-methyl-3-(phenylamino)-2-[3-(3,3,3-trifluoropropoxy)pyridin-4-yl]-1,5,6,7-tetrahydro-4H-pyrrolo[3,2-c]pyridin-4-one] | 51.8 |
| CN1CCc2[nH]c(-c3ccncc3OCCO)c(Nc3ccccc3)c2C1=O [Example 26, 2-[3-(2-hydroxyethoxy)pyridin-4-yl]-5-methyl-3-(phenylamino)-1,5,6,7-tetrahydro-4H-pyrrolo[3,2-c]pyridin-4-one] | 47.6 |
| O=C1NCCc2[nH]c(-c3ccncc3OCC(F)F)c(Nc3ccc(F)c(F)c3)c21 [Example 43, 2-[3-(2,2-difluoroethoxy)pyridin-4-yl]-3-[(3,4-difluorophenyl)amino]-1,5,6,7-tetrahydro-4H-pyrrolo[3,2-c]pyridin-4-one] | 136 |
| COCCn1c2c(c(Nc3ccccc3)c1-c1ccncc1)C(=O)NCC2 [Example 9, 1-(2-methoxyethyl)-3-(phenylamino)-2-(pyridin-4-yl)-1,5,6,7-tetrahydro-4H-pyrrolo[3,2-c]pyridin-4-one] | 354 |
| O=C1NCCc2[nH]c(-c3ccncc3OCC(F)F)c(Nc3ccc(F)cc3)c21 [Example 42, 2-[3-(2,2-difluoroethoxy)pyridin-4-yl]-3-[(4-fluorophenyl)amino]-1,5,6,7-tetrahydro-4H-pyrrolo[3,2-c]pyridin-4-one] | 111 |
| Nc1cc(-c2[nH]c3c(c2Nc2ccccc2)C(=O)NCC3)ccn1 [Example 8, 2-(2-aminopyridin-4-yl)-3-(phenylamino)-1,5,6,7-tetrahydro-4H-pyrrolo[3,2-c]pyridin-4-one] | 138 |
| CN1CCc2[nH]c(-c3ccnc(N)c3)c(Nc3ccccc3)c2C1=O [Example 21, 2-(2-aminopyridin-4-yl)-5-methyl-3-(phenylamino)-1,5,6,7-tetrahydro-4H-pyrrolo[3,2-c]pyridin-4-one] | 170 |

Now those with a lower IC50, led by results:

| IC50 [nM] | SMILES |
| --- | --- |
| 26.9 | COc1cnccc1-c1[nH]c2c(c1Nc1ccccc1)C(=O)N(C)CC2 [Example 22, 2-(3-methoxypyridin-4-yl)-5-methyl-3-(phenylamino)-1,5,6,7-tetrahydro-4H-pyrrolo[3,2-c]pyridin-4-one] |
| 21.7 | CN1CCc2[nH]c(-c3ccncc3OCC3CC3)c(Nc3ccccc3)c2C1=O [Example 27, 2-[3-(cyclopropylmethoxy)pyridin-4-yl]-5-methyl-3-(phenylamino)-1,5,6,7-tetrahydro-4H-pyrrolo[3,2-c]pyridin-4-one] |
| 34.8 | CN1CCc2[nH]c(-c3ccnc4[nH]cnc34)c(Nc3ccccc3)c2C1=O [Example 36, 2-(3H-imidazo[4,5-b]pyridin-7-yl)-5-methyl-3-(phenylamino)-1,5,6,7-tetrahydro-4H-pyrrolo[3,2-c]pyridin-4-one] |
| 41.6 | CN1CCc2[nH]c(-c3ccncc3OCc3ccccc3)c(Nc3ccccc3)c2C1=O [Example 32, 2-[3-(benzyloxy)pyridin-4-yl]-5-methyl-3-(phenylamino)-1,5,6,7-tetrahydro-4H-pyrrolo[3,2-c]pyridin-4-one] |
| 13.4 | CN1CCc2[nH]c(-c3ccncc3)c(Nc3ccccc3)c2C1=O [Example 20, 5-methyl-3-(phenylamino)-2-(pyridin-4-yl)-1,5,6,7-tetrahydro-4H-pyrrolo[3,2-c]pyridin-4-one] |
| 22.5 | CN1CCc2[nH]c(-c3ccncc3OC[C@H]3CCOC3)c(Nc3ccccc3)c2C1=O [Example 34, 5-methyl-3-(phenylamino)-2-{3-[(3S)-tetrahydrofuran-3-ylmethoxy]pyridin-4-yl}-1,5,6,7-tetrahydro-4H-pyrrolo[3,2-c]pyridin-4-one] |
| 19.8 | O=C1NCCc2[nH]c(-c3ccncc3)c(Nc3ccc(F)cc3)c21 [Example 7, 3-[(4-fluorophenyl)amino]-2-(pyridin-4-yl)-1,5,6,7-tetrahydro-4H-pyrrolo[3,2-c]pyridin-4-one] |
| 7.89 | O=C1NCCc2[nH]c(-c3ccncc3)c(Nc3ccccc3)c21 [Example 2, 3-(phenylamino)-2-(pyridin-4-yl)-1,5,6,7-tetrahydro-4H-pyrrolo[3,2-c]pyridin-4-one] |
| 36.8 | O=C1NCCc2[nH]c(-c3ccncc3OCC(F)F)c(Nc3cccc(F)c3)c21 [Example 41, 2-[3-(2,2-difluoroethoxy)pyridin-4-yl]-3-[(3-fluorophenyl)amino]-1,5,6,7-tetrahydro-4H-pyrrolo[3,2-c]pyridin-4-one] |
| 23.2 | CC(=O)Nc1cc(-c2[nH]c3c(c2Nc2ccccc2)C(=O)N(C)CC3)ccn1 [Example 23] |
| 24.1 | O=C1NCCc2[nH]c(-c3ccncc3OCC3CC3)c(Nc3cccc(F)c3)c21 [Example 39, 2-[3-(cyclopropylmethoxy)pyridin-4-yl]-3-[(3-fluorophenyl)amino]-1,5,6,7-tetrahydro-4H-pyrrolo[3,2-c]pyridin-4-one] |
| 32.8 | COCCOc1cnccc1-c1[nH]c2c(c1Nc1ccc(F)cc1)C(=O)NCC2 [Example 46, 3-[(4-fluorophenyl)amino]-2-[3-(2-methoxyethoxy)pyridin-4-yl]-1,5,6,7-tetrahydro-4H-pyrrolo[3,2-c]pyridin-4-one] |
| 14.6 | CCn1c2c(c(Nc3ccccc3)c1-c1ccncc1)C(=O)NC(C)(C)C2 [Example 4, 1-ethyl-6,6-dimethyl-3-(phenylamino)-2-(pyridin-4-yl)-1,5,6,7-tetrahydro-4H-pyrrolo[3,2-c]pyridin-4-one] |
| 19.1 | O=c1[nH]ccc2[nH]c(-c3ccncc3F)c(Nc3ccccc3)c12 [Example 16, 2-(3-fluoropyridin-4-yl)-3-(phenylamino)-1,5-dihydro-4H-pyrrolo[3,2-c]pyridin-4-one] |
| 17.1 | CN1CCc2[nH]c(-c3ccnc(NC(=O)[C@H]4C[C@H]4F)c3)c(Nc3ccccc3)c2C1=O (relative stereo) [Example 25, rel-(1R,2R)-2-fluoro-N-{4-[5-methyl-4-oxo-3-(phenylamino)-4,5,6,7-tetrahydro-1H-pyrrolo[3,2-c]pyridin-2-yl]pyridin-2-yl}cyclopropanecarboxamide] |
